Source: ChEMBL document CHEMBL4411339, “Design, synthesis and antimycobacterial activity of less lipophilic Q203 derivatives containing alkaline fused ring moieties” (Bioorg Med Chem, 2019)
Converted amounts (≈) assume the structure as drawn.

Experiments:
[1] = system: Mycobacterium tuberculosis; assay: Antimycobacterial activity against Mycobacterium tuberculosis H37Rv ATCC 27294 after 7 days by microplate alamar blue assay; assay type: functional; conditions: H37Rv ATCC 27294, 168 h
[2] = Cytotoxicity against African green monkey Vero cells assessed as reduction in cell viability after 72 hrs by MTT assay; assay type: cell-based; conditions: chlorocebus sabaeus
hERG (KCNH2) = hERG (KCNH2) (Homo sapiens, UniProt Q12809); assay: Inhibition of human ERG at 10 uM relative to control
Chain of hERG (KCNH2) (Q12809 whole entry): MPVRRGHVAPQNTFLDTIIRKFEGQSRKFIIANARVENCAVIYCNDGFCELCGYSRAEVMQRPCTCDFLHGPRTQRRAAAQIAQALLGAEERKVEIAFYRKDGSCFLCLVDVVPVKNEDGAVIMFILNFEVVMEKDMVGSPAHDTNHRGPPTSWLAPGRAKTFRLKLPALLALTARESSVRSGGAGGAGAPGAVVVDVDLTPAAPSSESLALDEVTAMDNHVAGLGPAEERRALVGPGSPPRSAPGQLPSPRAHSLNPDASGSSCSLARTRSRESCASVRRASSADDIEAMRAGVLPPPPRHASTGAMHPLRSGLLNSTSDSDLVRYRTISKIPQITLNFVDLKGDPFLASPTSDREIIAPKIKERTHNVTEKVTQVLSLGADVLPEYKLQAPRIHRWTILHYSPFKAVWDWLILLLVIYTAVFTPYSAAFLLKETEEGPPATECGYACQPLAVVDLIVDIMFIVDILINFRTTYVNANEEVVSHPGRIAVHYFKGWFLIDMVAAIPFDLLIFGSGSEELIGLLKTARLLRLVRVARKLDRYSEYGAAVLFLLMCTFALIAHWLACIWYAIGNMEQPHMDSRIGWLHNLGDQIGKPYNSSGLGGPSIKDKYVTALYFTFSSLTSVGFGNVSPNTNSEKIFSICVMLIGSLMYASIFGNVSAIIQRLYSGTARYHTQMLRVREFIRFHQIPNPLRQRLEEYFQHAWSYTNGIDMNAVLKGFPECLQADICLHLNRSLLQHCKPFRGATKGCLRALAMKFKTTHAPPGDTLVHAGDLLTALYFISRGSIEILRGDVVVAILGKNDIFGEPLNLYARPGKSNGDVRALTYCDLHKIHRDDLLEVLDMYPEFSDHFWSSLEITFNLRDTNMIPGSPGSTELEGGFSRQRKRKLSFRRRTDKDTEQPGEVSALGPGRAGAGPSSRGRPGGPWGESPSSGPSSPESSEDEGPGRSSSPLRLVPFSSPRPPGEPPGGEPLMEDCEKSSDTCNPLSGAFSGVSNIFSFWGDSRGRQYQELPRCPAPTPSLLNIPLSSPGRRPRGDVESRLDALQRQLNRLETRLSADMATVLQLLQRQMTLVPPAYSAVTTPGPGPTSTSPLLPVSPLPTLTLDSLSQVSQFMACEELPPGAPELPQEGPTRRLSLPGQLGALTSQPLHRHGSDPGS

[3] = Acute toxicity in specific pathogen free ICR mouse at 500 mg/kg, po administered as single dose measured up to 7 days; assay type: organism-based; conditions: in vivo, 168 h
[4] = AUC (0 to infinity) in specific pathogen free ICR mouse at 25 mg/kg, po administered as single dose by HPLC analysis; assay type: ADME, organism-based; design: dose 25 mg/kg, time infinity, route oral; conditions: in vivo
[5] = Cmax in specific pathogen free ICR mouse at 25 mg/kg, po administered as single dose by HPLC analysis; assay type: ADME, organism-based; design: dose 25 mg/kg, route oral; conditions: in vivo
[6] = Tmax in specific pathogen free ICR mouse at 25 mg/kg, po administered as single dose by HPLC analysis; assay type: ADME, organism-based; conditions: in vivo
[7] = Elimination half life in specific pathogen free ICR mouse at 25 mg/kg, po administered as single dose by HPLC analysis; assay type: ADME, organism-based; conditions: in vivo, read-out: beta t1/2 (converted)
[8] = Aqueous solubility of the compound in pH 2 0.01M HCl incubated under stirred condition for 12 hrs by UV-HPLC analysis; assay type: physicochemical

| SMILES | MIC [1] [µM] | CC50 at 72 h [2] [µg/mL] | inhibition at 10 µM (hERG (KCNH2)) [%] | Activity [3] | AUC(0-inf) [4] [ng·h/mL] | Cmax [5] [ng/mL] | Tmax [6] [h] | half-life [7] [h] | solubility at 12 h [8] [µg/mL] |
| --- | --- | --- | --- | --- | --- | --- | --- | --- | --- |
| CCc1nc2cc(Cl)ccn2c1C(=O)NCc1ccc2c(c1)CCN(CCc1ccc(C(F)(F)F)cn1)C2 | < 0.035 | 25 (≈ 46.1 µM) |  |  |  |  |  |  |  |
| CCc1nc2cc(Cl)ccn2c1C(=O)NCc1ccc2c(c1)CCN(Cc1ccc(C)cc1)C2 | 0.27 (≈ 0.128 µg/mL) |  |  |  |  |  |  |  |  |
| CCc1nc2ccc(Cl)cn2c1C(=O)NCc1ccc2c(c1)CCN(Cc1ccc(C(F)(F)F)cn1)C2 | 0.053 (≈ 0.028 µg/mL) | > 64 | 25 | Non-Toxic | 25600 | 8060 | 0.583 | 3.2 |  |
| CCc1nc2ccc(Cl)cn2c1C(=O)NCc1ccc2c(c1)CCN(Cc1ccc(C(F)(F)F)nc1)C2 | 0.097 (≈ 0.0512 µg/mL) | 7 (≈ 13.3 µM) |  |  |  |  |  |  |  |
| CCc1nc2ccc(Cl)cn2c1C(=O)NCc1ccc2c(c1)CCN(Cc1ccc([N+](=O)[O-])o1)C2 | 0.25 (≈ 0.123 µg/mL) |  |  |  |  |  |  |  |  |
| CCc1nc2ccc(Cl)cn2c1C(=O)NCc1ccc2c(c1)CCN(Cc1ccc(Br)cc1)C2 | < 0.035 | 30 (≈ 55.8 µM) |  |  |  |  |  |  |  |
| CCc1nc2ccc(Cl)cn2c1C(=O)NCc1ccc(N2CCC(c3ccc(OC(F)(F)F)cc3)CC2)cc1 [TELACEBEC] | < 0.035 | > 64 | 50 |  | 46600 | 3780 | 2.67 | 18.7 | 79 (≈ 142 µM) |
| CCc1nc2ccc(Cl)cn2c1C(=O)NCc1ccc2c(c1)CCN(Cc1ccc(C(C)(C)C)cc1)C2 | < 0.035 | 37 (≈ 71.8 µM) | 31 | Non-Toxic | 4210 | 1080 | 0.5 | 9.35 |  |
| CCc1nc2cc(Cl)ccn2c1C(=O)NCc1ccc2c(c1)CCN(Cc1cc(F)cc(F)c1)C2 | < 0.035 | 48 (≈ 97 µM) | 48 | Non-Toxic | 24100 | 5380 | 0.667 | 9.06 |  |
| CCc1nc2ccc(Cl)cn2c1C(=O)NCc1ccc2c(c1)CCN(CCc1ccc(C(F)(F)F)nc1)C2 | 0.047 (≈ 0.0255 µg/mL) | > 64 | 44 | Non-Toxic | 1480 | 1630 | 0.25 | 1.79 |  |
| CCc1nc2cc(Cl)ccn2c1C(=O)NCc1ccc2c(c1)CCN(Cc1ccc(Br)cc1)C2 | 0.31 (≈ 0.167 µg/mL) |  |  |  |  |  |  |  |  |
| CCc1nc2ccc(Cl)cn2c1C(=O)NCc1ccc2c(c1)CCN(Cc1ccc(F)cc1)C2 | < 0.035 | > 64 | 60 |  |  |  |  |  |  |
| CCc1nc2ccc(Cl)cn2c1C(=O)NCc1ccc2c(c1)CCN(Cc1cc(F)cc(F)c1)C2 | < 0.035 | 14 (≈ 28.3 µM) |  |  |  |  |  |  |  |
| CO[C@H]1/C=C/O[C@@]2(C)Oc3c(C)c(O)c4c(O)c(c(/C=N/N5CCN(C)CC5)c(O)c4c3C2=O)NC(=O)/C(C)=C\C=C\[C@H](C)[C@H](O)[C@@H](C)[C@@H](O)[C@@H](C)[C@H](OC(C)=O)[C@@H]1C [RIFAMPIN] | 0.12 (≈ 0.0988 µg/mL) |  |  |  |  |  |  |  |  |
| CCc1nc2cc(Cl)ccn2c1C(=O)NCc1ccc2c(c1)CCN(Cc1ccc([N+](=O)[O-])o1)C2 | < 0.035 | > 64 | 71 |  |  |  |  |  |  |
| CCc1nc2ccc(Cl)cn2c1C(=O)NCc1ccc2c(c1)CCN(Cc1ccc(C(F)(F)F)cc1)C2 | 0.13 (≈ 0.0685 µg/mL) | > 64 | 50 | Non-Toxic | 7800 | 3000 | 0.25 | 4.98 |  |
| CCc1nc2ccc(Cl)cn2c1C(=O)NCc1ccc2c(c1)CCN(CCc1ccc(C(F)(F)F)cn1)C2 | < 0.035 | 48 (≈ 88.6 µM) | 13 | Non-Toxic | 54900 | 22100 | 0.25 | 5.39 | 2100 (≈ 3870 µM) |
| CCc1nc2cc(Cl)ccn2c1C(=O)NCc1ccc2c(c1)CCN(Cc1ccc(C(F)(F)F)cc1)C2 | 0.91 (≈ 0.48 µg/mL) |  |  |  |  |  |  |  |  |
| CCc1nc2cc(Cl)ccn2c1C(=O)NCc1ccc2c(c1)CCN(Cc1ccc(F)cc1)C2 | 0.19 (≈ 0.0906 µg/mL) |  |  |  |  |  |  |  |  |
| CCc1nc2cc(Cl)ccn2c1C(=O)NCc1ccc2c(c1)CCN(Cc1ccc(C(C)(C)C)cc1)C2 | 0.12 (≈ 0.0618 µg/mL) | 14 (≈ 27.2 µM) |  |  |  |  |  |  |  |
| CCc1nc2ccc(Cl)cn2c1C(=O)NCc1ccc2c(c1)CN(C(C)c1ccc(OC(F)(F)F)cc1)C2 (stereo not given) | < 0.035 | > 64 | 50 | Non-Toxic | 7610 | 3990 | 0.333 | 9.08 |  |
| NNC(=O)c1ccncc1 [ISONIAZID] | 0.27 (≈ 0.037 µg/mL) |  |  |  |  |  |  |  |  |
| O=c1nc(N2CCN(CC3CCCCC3)CC2)sc2c([N+](=O)[O-])cc(C(F)(F)F)cc12 [MACOZINONE] | < 0.035 | 31 (≈ 67.9 µM) | 41 |  | 1600 |  |  |  | 1130 (≈ 2480 µM) |
| CCc1nc2cc(Cl)ccn2c1C(=O)NCc1ccc2c(c1)CCN(CCc1ccc(C(F)(F)F)nc1)C2 | 0.19 (≈ 0.103 µg/mL) |  |  |  |  |  |  |  |  |
| CCc1nc2ccc(Cl)cn2c1C(=O)NCc1ccc2c(c1)CN(Cc1ccc(OC(F)(F)F)cc1)C2 | 0.051 (≈ 0.027 µg/mL) | > 64 | 50 | Non-Toxic | 3600 | 1310 | 0.417 | 5.13 |  |
| CCc1nc2cc(Cl)ccn2c1C(=O)NCc1ccc2c(c1)CCN(Cc1ccc(OC)cc1)C2 | < 0.035 | 32 (≈ 65.4 µM) | 64 |  |  |  |  |  |  |
| CCc1nc2ccc(Cl)cn2c1C(=O)NCc1ccc2c(c1)CCN(Cc1ccc(OC)cc1)C2 | < 0.035 | 2 (≈ 4.09 µM) |  |  |  |  |  |  |  |
| CCc1nc2ccc(Cl)cn2c1C(=O)NCc1ccc2c(c1)CCN(Cc1ccc(C)cc1)C2 | < 0.035 | 51 (≈ 108 µM) | 54 |  |  |  |  |  |  |
